Values quoted from earlier work as cited in patent US5229370A, “Water soluble branched beta cyclodextrin steroid complex” (priority 1992, dated 1993).

details: under ambient conditions; reported

In order of rising “solubility of steroid in water” value:
1. CC(C)CCC[C@@H](C)[C@H]1CC[C@H]2[C@@H]3CC=C4C[C@@H](O)CC[C@]4(C)[C@H]3CC[C@]12C [cholesterol]  2 µg/mL
2. CC(=O)[C@H]1CC[C@H]2[C@@H]3CCC4=CC(=O)CC[C@]4(C)[C@H]3CC[C@]12C [progesterone]  16 µg/mL
3. C[C@]12CC[C@H]3[C@@H](CCC4=CC(=O)CC[C@@]43C)[C@@H]1CC[C@@H]2O [testosterone]  40 µg/mL
